Experimental data published in patent publication US10597388B2, “Pyridazinone herbicides” (FMC CORPORATION, priority 2014, dated 2020).

Assays:
Experiment in all cases: Test D controlled growth environment herbicide test, pre- and postemergence
Type in all cases: in vivo
[1] = test system: barley, spring (spring barley, Hordeum vulgare)
How it was run: (§1)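 Pre-emergence: seeds sown in silt loam soil were sprayed with compound in a non-phytotoxic solvent mix containing surfactant. Post-emergence: plants at 2 to 18 cm (1- to 4-leaf stage) in peat moss/vermiculite medium got the same formulation. Visual 0–100 rating versus controls after 14 to 21 d.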

[2] = test system: blackgrass (Alopecurus myosuroides)
How it was run: as §1

[3] = test system: bluegrass (annual bluegrass, Poa annua)
How it was run: as §1

[4] = test system: chamomile (scentless chamomile, Matricaria inodora)
How it was run: as §1

[5] = test system: field poppy (Papaver rhoeas)
How it was run: as §1

[6] = test system: foxtail, green (green foxtail, Setaria viridis)
How it was run: as §1

[7] = test system: lambsquarters (Chenopodium album)
How it was run: as §1

[8] = test system: mustard, wild (wild mustard, Sinapis arvensis)
How it was run: as §1

[9] = test system: oilseed rape (Brassica napus)
How it was run: as §1

[10] = test system: ryegrass, Italian (Italian ryegrass, Lolium multiflorum)
How it was run: as §1

[11] = test system: speedwell (bird's-eye speedwell, Veronica persica)
How it was run: as §1

[12] = test system: wheat, spring (spring wheat, Triticum aestivum)
How it was run: as §1

[13] = test system: wheat, winter (winter wheat, Triticum aestivum)
How it was run: as §1

[14] = Postemergence, 31 g ai/ha, scale 0 to 100 (0 no effect, 100 complete control)
[15] = Postemergence, 125 g ai/ha, visual rating on scale 0 (no effect) to 100 (complete control), 14 to 21 d
[16] = Postemergence, 250 g ai/ha, scale 0 to 100 (0 no effect, 100 complete control)
[17] = Preemergence, 62 g ai/ha, scale 0 to 100 (0 no effect, 100 complete control)
[18] = Preemergence, 125 g ai/ha, scale 0 to 100 (0 no effect, 100 complete control)
[19] = Preemergence, 250 g ai/ha, scale 0 to 100 (0 no effect, 100 complete control)
[20] = postemergence, 62 g ai/ha, scale 0 to 100, 0 no effect, 100 complete control

SMILES: Cc1ccc(-c2c(O)c(Br)nn(C)c2=O)c2ccccc12 [Compound 52]
- Barley, Spring plant response rating [1, 14]: 0
- Plant response rating, Barley, Spring [1, 15]: 5
- Plant response rating, Barley, Spring [1, 16]: 0
- Plant response rating (scale of 0 to 100), Barley, Spring ([1]; Preemergence, 31 g ai/ha): 0
- Plant response rating, Barley, Spring [1, 17]: 0
- Plant response rating, Barley, Spring [1, 18]: 0
- Plant response rating, Barley, Spring [1, 19]: 0
- Plant response rating, Barley, Spring [1, 20]: 0
- Blackgrass plant response rating [2, 14]: 10
- Plant response rating, Blackgrass [2, 15]: 15
- Plant response rating, Blackgrass [2, 16]: 40
- Plant response rating (scale of 0 to 100), Blackgrass ([2]; Preemergence, 31 g ai/ha): 20
- Plant response rating, Blackgrass [2, 17]: 20
- Plant response rating, Blackgrass [2, 18]: 65
- Plant response rating, Blackgrass [2, 19]: 65
- Plant response rating, Blackgrass [2, 20]: 15
- Bluegrass plant response rating [3, 14]: 5
- Plant response rating, Bluegrass [3, 15]: 30
- Plant response rating, Bluegrass [3, 16]: 30
- Plant response rating (scale of 0 to 100), Bluegrass ([3]; Preemergence, 31 g ai/ha): 0
- Plant response rating, Bluegrass [3, 17]: 10
- Plant response rating, Bluegrass [3, 18]: 25
- Plant response rating, Bluegrass [3, 19]: 35
- Plant response rating, Bluegrass [3, 20]: 5
- Chamomile plant response rating [4, 14]: 85
- Plant response rating, Chamomile [4, 15]: 100
- Plant response rating, Chamomile [4, 16]: 100
- Plant response rating (scale of 0 to 100), Chamomile ([4]; Preemergence, 31 g ai/ha): 60
- Plant response rating, Chamomile [4, 17]: 100
- Plant response rating, Chamomile [4, 18]: 100
- Plant response rating, Chamomile [4, 19]: 100
- Plant response rating, Chamomile [4, 20]: 100
- Field Poppy plant response rating [5, 14]: 85
- Plant response rating, Field Poppy [5, 15]: 90
- Plant response rating, Field Poppy [5, 16]: 100
- Plant response rating (scale of 0 to 100), Field Poppy ([5]; Preemergence, 31 g ai/ha): 0
- Plant response rating, Field Poppy [5, 17]: 0
- Plant response rating, Field Poppy [5, 18]: 100
- Plant response rating, Field Poppy [5, 19]: 100
- Plant response rating, Field Poppy [5, 20]: 80
- Foxtail, Green plant response rating [6, 14]: 5
- Plant response rating, Foxtail, Green [6, 15]: 10
- Plant response rating, Foxtail, Green [6, 16]: 40
- Plant response rating (scale of 0 to 100), Foxtail, Green ([6]; Preemergence, 31 g ai/ha): 0
- Plant response rating, Foxtail, Green [6, 17]: 0
- Plant response rating, Foxtail, Green [6, 18]: 15
- Plant response rating, Foxtail, Green [6, 19]: 35
- Plant response rating, Foxtail, Green [6, 20]: 5
- Lambsquarters plant response rating [7, 14]: 75
- Plant response rating, Lambsquarters [7, 15]: 75
- Plant response rating, Lambsquarters [7, 16]: 90
- Plant response rating (scale of 0 to 100), Lambsquarters ([7]; Preemergence, 31 g ai/ha): 35
- Plant response rating, Lambsquarters [7, 17]: 90
- Plant response rating, Lambsquarters [7, 18]: 100
- Plant response rating, Lambsquarters [7, 19]: 100
- Plant response rating, Lambsquarters [7, 20]: 75
- Mustard, Wild plant response rating [8, 14]: 20
- Plant response rating, Mustard, Wild [8, 15]: 90
- Plant response rating, Mustard, Wild [8, 16]: 100
- Plant response rating (scale of 0 to 100), Mustard, Wild ([8]; Preemergence, 31 g ai/ha): 85
- Plant response rating, Mustard, Wild [8, 17]: 100
- Plant response rating, Mustard, Wild [8, 18]: 90
- Plant response rating, Mustard, Wild [8, 19]: 98
- Plant response rating, Mustard, Wild [8, 20]: 75
- Oilseed Rape plant response rating [9, 14]: 0
- Plant response rating, Oilseed Rape [9, 15]: 65
- Plant response rating, Oilseed Rape [9, 16]: 80
- Plant response rating (scale of 0 to 100), Oilseed Rape ([9]; Preemergence, 31 g ai/ha): 0
- Plant response rating, Oilseed Rape [9, 17]: 0
- Plant response rating, Oilseed Rape [9, 18]: 0
- Plant response rating, Oilseed Rape [9, 19]: 55
- Plant response rating, Oilseed Rape [9, 20]: 5
- Ryegrass, Italian plant response rating [10, 14]: 40
- Plant response rating, Ryegrass, Italian [10, 15]: 75
- Plant response rating, Ryegrass, Italian [10, 16]: 80
- Plant response rating (scale of 0 to 100), Ryegrass, Italian ([10]; Preemergence, 31 g ai/ha): 85
- Plant response rating, Ryegrass, Italian [10, 17]: 85
- Plant response rating, Ryegrass, Italian [10, 18]: 100
- Plant response rating, Ryegrass, Italian [10, 19]: 98
- Plant response rating, Ryegrass, Italian [10, 20]: 50
- Speedwell plant response rating [11, 14]: 70
- Plant response rating, Speedwell [11, 15]: 100
- Plant response rating, Speedwell [11, 16]: 100
- Plant response rating (scale of 0 to 100), Speedwell ([11]; Preemergence, 31 g ai/ha): 50
- Plant response rating, Speedwell [11, 17]: 100
- Plant response rating, Speedwell [11, 18]: 95
- Plant response rating, Speedwell [11, 19]: 100
- Plant response rating, Speedwell [11, 20]: 85
- Wheat, Spring plant response rating [12, 14]: 0
- Plant response rating, Wheat, Spring [12, 15]: 0
- Plant response rating, Wheat, Spring [12, 16]: 5
- Plant response rating (scale of 0 to 100), Wheat, Spring ([12]; Preemergence, 31 g ai/ha): 0
- Plant response rating, Wheat, Spring [12, 17]: 0
- Plant response rating, Wheat, Spring [12, 18]: 0
- Plant response rating, Wheat, Spring [12, 19]: 5
- Plant response rating, Wheat, Spring [12, 20]: 0
- Wheat, Winter plant response rating [13, 14]: 0
- Plant response rating, Wheat, Winter [13, 15]: 15
- Plant response rating, Wheat, Winter [13, 16]: 15
- Plant response rating (scale of 0 to 100), Wheat, Winter ([13]; Preemergence, 31 g ai/ha): 0
- Plant response rating, Wheat, Winter [13, 17]: 0
- Plant response rating, Wheat, Winter [13, 18]: 0
- Plant response rating, Wheat, Winter [13, 19]: 0
- Plant response rating, Wheat, Winter [13, 20]: 10
